Legend:
Glomerella cingulata = assay: Fungicidal effect test against fungi causing grape ripe rot disease; conditions: Colletotrichum gloeosporioides, 72 h, read-out: growth inhibition ratio
Colletotrichum acutatum = assay: Fungicidal effect test against fungi causing apple anthracnose; conditions: 96 h, read-out: growth inhibition ratio
Fusarium graminearum = assay: microbe, parasite or virus in culture; format: cell-based; conditions: 96 h, read-out: growth inhibition ratio
Botrytis cinerea [1] = format: cell-based; conditions: 120 h, 25 ppm by volume, Vogel medium, 20° C., five days, dark, read-out: growth inhibition ratio
Botrytis cinerea [2] = assay: Control test of cucumber gray mold (sprayed young cucumber seedlings); format: in vivo; conditions: 96 h, four days after inoculation; for pest or weed control at 125 ppm: 125 ppm by mass spray; for pest or weed control at 25 ppm: 25 ppm by mass spray
Description: Then, the drug liquid was sprayed onto young cucumber seedlings cultivated in a nursery pot (variety “Jihai”-based, cotyledon stage), and then air-dried. […] They were left still in a moist room at 20° C. Four days after inoculation, leaves of the young cucumber seedlings were visually observed, and the control value was calculated from the lesion area ratio in accordance with the following equation. [formula]

Venturia inaequalis = assay: Control test of apple scab disease (sprayed young apple seedlings); format: in vivo; conditions: 125 ppm by mass spray, 12 to 14 days after inoculation
[3] = system: Erysiphe graminis f.sp.tritici; assay: Control test of wheat powdery mildew disease (sprayed young wheat seedlings); format: in vivo; conditions: Blumeria graminis, 144 h, 125 ppm by mass spray, six days after inoculation

COC(=O)N(Cc1ccc(C)cc1C)NC(=O)c1cc(C)nnc1Oc1cccc(Cl)n1 [b-215]
≥ 75%: inhibition of growth at 25 ppm (Glomerella cingulata) | inhibition of growth at 25 ppm (Colletotrichum acutatum) | inhibition of growth at 25 ppm (Fusarium graminearum) | inhibition of growth at 25 ppm (Botrytis cinerea [1])

COC(=O)N(Cc1ccc(N(C)C)cc1C)NC(=O)c1cc(C)ncc1Oc1cccc(C2CC2)c1F [b-126]
≥ 75%: pest or weed control at 125 ppm (Botrytis cinerea [2]) | inhibition of growth at 25 ppm (Glomerella cingulata) | inhibition of growth at 25 ppm (Colletotrichum acutatum) | inhibition of growth at 25 ppm (Fusarium graminearum) | inhibition of growth at 25 ppm (Botrytis cinerea [1])

COC(=O)N(Cc1ccc(C)cc1C)NC(=O)c1cc(C2CC2)ncc1Oc1cccc(C2CC2)c1F [b-116]
≥ 75%: pest or weed control at 25 ppm (Botrytis cinerea [2]) | inhibition of growth at 25 ppm (Glomerella cingulata) | inhibition of growth at 25 ppm (Colletotrichum acutatum) | inhibition of growth at 25 ppm (Fusarium graminearum) | inhibition of growth at 25 ppm (Botrytis cinerea [1])

Cc1ccc(CNNC(=O)c2cc(C)nnc2Oc2cccc(C3CC3)c2F)c(C)c1 [b-1]
≥ 75%: inhibition of growth at 25 ppm (Glomerella cingulata) | inhibition of growth at 25 ppm (Colletotrichum acutatum) | inhibition of growth at 25 ppm (Fusarium graminearum) | inhibition of growth at 25 ppm (Botrytis cinerea [1])

COC(=O)N(Cc1ccc(C#N)cc1C)NC(=O)c1cc(C)ncc1Oc1cccc(C2CC2)c1F [b-128]
≥ 75%: inhibition of growth at 25 ppm (Glomerella cingulata) | inhibition of growth at 25 ppm (Colletotrichum acutatum) | inhibition of growth at 25 ppm (Fusarium graminearum) | inhibition of growth at 25 ppm (Botrytis cinerea [1])

COC(=O)N(Cc1ccc(C)cc1C)NC(=O)c1cc(C)ncc1Oc1cccc(C2CC2)c1 [b-32]
≥ 75%: pest or weed control at 25 ppm (Botrytis cinerea [2]) | inhibition of growth at 25 ppm (Glomerella cingulata) | inhibition of growth at 25 ppm (Colletotrichum acutatum) | inhibition of growth at 25 ppm (Fusarium graminearum) | inhibition of growth at 25 ppm (Botrytis cinerea [1])

COC(=O)N(Cc1ccc(OC)cc1C)NC(=O)c1cc(C#N)ncc1Oc1cccc(C2CC2)c1F [b-167]
≥ 75%: inhibition of growth at 25 ppm (Glomerella cingulata) | inhibition of growth at 25 ppm (Colletotrichum acutatum) | inhibition of growth at 25 ppm (Fusarium graminearum) | inhibition of growth at 25 ppm (Botrytis cinerea [1])

C=C(OCC)c1cncc(Oc2cccc(C3CC3)c2F)c1C(=O)NN(Cc1ccc(C)cc1C)C(=O)OC [b-217]
≥ 75%: inhibition of growth at 25 ppm (Glomerella cingulata) | inhibition of growth at 25 ppm (Colletotrichum acutatum) | inhibition of growth at 25 ppm (Fusarium graminearum) | inhibition of growth at 25 ppm (Botrytis cinerea [1])

COC(=O)N(Cc1ccc(C)cc1C)NC(=O)c1cc(C#N)ncc1Oc1cccc(C2CC2)c1F [b-119]
≥ 75%: pest or weed control at 25 ppm (Botrytis cinerea [2]) | inhibition of growth at 25 ppm (Glomerella cingulata) | inhibition of growth at 25 ppm (Colletotrichum acutatum) | inhibition of growth at 25 ppm (Fusarium graminearum) | inhibition of growth at 25 ppm (Botrytis cinerea [1])

COC(=O)N(Cc1ccc(C)cc1C)NC(=O)c1cc(C)nnc1Oc1ccccc1 [b-143]
≥ 75%: inhibition of growth at 25 ppm (Glomerella cingulata) | inhibition of growth at 25 ppm (Colletotrichum acutatum) | inhibition of growth at 25 ppm (Fusarium graminearum) | inhibition of growth at 25 ppm (Botrytis cinerea [1])

COC(=O)N(Cc1ccc(C)cc1C)NC(=O)c1c(Oc2cccc(C3CC3)c2F)cnc2c1OC(C)(C)CC2 [b-209, Methyl 2-(7-(3-cyclopropyl-2-fluorophenoxy)-2,2-dimethyl-3,4-dihydro-2H-pyrano[3,2-b]pyridine-8-carbonyl)-1-(2,4-dimethylbenzyl)hydrazine-1-carboxylate]
≥ 75%: pest or weed control at 25 ppm (Botrytis cinerea [2]) | pest or weed control at 125 ppm (Botrytis cinerea [2]) | inhibition of growth at 25 ppm (Glomerella cingulata) | inhibition of growth at 25 ppm (Colletotrichum acutatum) | inhibition of growth at 25 ppm (Fusarium graminearum) | inhibition of growth at 25 ppm (Botrytis cinerea [1])

COC(=O)N(Cc1ccc(C)cc1C)NC(=O)c1cc(SC)ncc1Oc1cccc(C2CC2)c1F [b-194]
≥ 75%: inhibition of growth at 25 ppm (Glomerella cingulata) | inhibition of growth at 25 ppm (Colletotrichum acutatum) | inhibition of growth at 25 ppm (Fusarium graminearum) | inhibition of growth at 25 ppm (Botrytis cinerea [1])

Cc1ccc(CNNC(=O)c2cc(C)ncc2Oc2cccc(C3CC3)c2F)c(C)c1 [b-8]
≥ 75%: inhibition of growth at 25 ppm (Glomerella cingulata) | inhibition of growth at 25 ppm (Colletotrichum acutatum) | inhibition of growth at 25 ppm (Fusarium graminearum) | inhibition of growth at 25 ppm (Botrytis cinerea [1])

COC(=O)N(Cc1ccc(OC)cc1OC)NC(=O)c1cc(C)ncc1Oc1cccc(Br)c1 [b-87]
≥ 75%: inhibition of growth at 25 ppm (Glomerella cingulata) | inhibition of growth at 25 ppm (Colletotrichum acutatum) | inhibition of growth at 25 ppm (Fusarium graminearum) | inhibition of growth at 25 ppm (Botrytis cinerea [1])

CO/N=C/c1cncc(Oc2cccc(C3CC3)c2F)c1C(=O)NN(Cc1ccc(C)cc1C)C(=O)OC [b-214]
≥ 75%: pest or weed control at 125 ppm (Botrytis cinerea [2]) | inhibition of growth at 25 ppm (Glomerella cingulata) | inhibition of growth at 25 ppm (Colletotrichum acutatum) | inhibition of growth at 25 ppm (Fusarium graminearum) | inhibition of growth at 25 ppm (Botrytis cinerea [1])

Cc1cc(C(=O)NNCc2ccc(Cl)cc2Cl)c(Oc2cccc(C3CC3)c2F)nn1 [b-7]
≥ 75%: inhibition of growth at 25 ppm (Glomerella cingulata) | inhibition of growth at 25 ppm (Colletotrichum acutatum) | inhibition of growth at 25 ppm (Fusarium graminearum) | inhibition of growth at 25 ppm (Botrytis cinerea [1])

COC(=O)N(Cc1ccc(C)cc1C)NC(=O)c1cc(C)nnc1Oc1cccc([N+](=O)[O-])c1 [b-135]
≥ 75%: pest or weed control at 25 ppm (Botrytis cinerea [2]) | inhibition of growth at 25 ppm (Glomerella cingulata) | inhibition of growth at 25 ppm (Colletotrichum acutatum) | inhibition of growth at 25 ppm (Fusarium graminearum) | inhibition of growth at 25 ppm (Botrytis cinerea [1])

COC(=O)N(Cc1ccc(OC)cc1C)NC(=O)c1c(F)cncc1Oc1cccc(C2CC2)c1F [b-201]
≥ 75%: pest or weed control at 25 ppm (Botrytis cinerea [2]) | pest or weed control at 125 ppm (Botrytis cinerea [2]) | inhibition of growth at 25 ppm (Glomerella cingulata) | pest or weed control at 125 ppm (Venturia inaequalis) | pest or weed control at 125 ppm [3] | inhibition of growth at 25 ppm (Colletotrichum acutatum) | inhibition of growth at 25 ppm (Botrytis cinerea [1])

CCOC(=O)N(Cc1ccc(C)cc1C)NC(=O)c1cc(C)nnc1Oc1cccc(C2CC2)c1F [b-21]
≥ 75%: pest or weed control at 25 ppm (Botrytis cinerea [2]) | pest or weed control at 125 ppm (Botrytis cinerea [2]) | inhibition of growth at 25 ppm (Glomerella cingulata) | pest or weed control at 125 ppm (Venturia inaequalis) | pest or weed control at 125 ppm [3] | inhibition of growth at 25 ppm (Colletotrichum acutatum) | inhibition of growth at 25 ppm (Botrytis cinerea [1])

COC(=O)N(Cc1ccc(C)cc1C)/N=C(\OC)c1cc(C)nnc1Oc1cccc(Cl)c1F [b-220, Methyl (Z)-2-((3-(3-chloro-2-fluorophenoxy)-6-methylpyridazin-4-yl)(methoxy)methylene)-1-(2,4-dimethylbenzyl)hydrazine-1-carboxylate]
≥ 75%: pest or weed control at 125 ppm (Botrytis cinerea [2]) | inhibition of growth at 25 ppm (Glomerella cingulata) | pest or weed control at 125 ppm (Venturia inaequalis) | pest or weed control at 125 ppm [3] | inhibition of growth at 25 ppm (Colletotrichum acutatum) | inhibition of growth at 25 ppm (Botrytis cinerea [1])

COC(=O)N(Cc1ccc(C)cc1C)NC(=O)c1ccnnc1Oc1cccc(C2CC2)c1F [b-189]
≥ 75%: pest or weed control at 25 ppm (Botrytis cinerea [2]) | pest or weed control at 125 ppm (Botrytis cinerea [2]) | inhibition of growth at 25 ppm (Glomerella cingulata) | pest or weed control at 125 ppm (Venturia inaequalis) | pest or weed control at 125 ppm [3] | inhibition of growth at 25 ppm (Colletotrichum acutatum) | inhibition of growth at 25 ppm (Botrytis cinerea [1])

COC(=O)N(Cc1ccc(Cl)cc1Cl)NC(=O)c1cc(C)nnc1Oc1cccc(C2CC2)c1F [b-57]
≥ 75%: pest or weed control at 125 ppm (Botrytis cinerea [2]) | inhibition of growth at 25 ppm (Glomerella cingulata) | pest or weed control at 125 ppm (Venturia inaequalis) | pest or weed control at 125 ppm [3] | inhibition of growth at 25 ppm (Colletotrichum acutatum) | inhibition of growth at 25 ppm (Botrytis cinerea [1])

COC(=O)N(Cc1ccc(C)cc1C)NC(=O)c1c(Oc2cccc(Cl)c2F)nnc2c1CCC2 [b-175]
≥ 75%: inhibition of growth at 25 ppm (Glomerella cingulata) | inhibition of growth at 25 ppm (Colletotrichum acutatum) | inhibition of growth at 25 ppm (Fusarium graminearum) | inhibition of growth at 25 ppm (Botrytis cinerea [1])

Cc1ccc(CN(NC(=O)c2cc(C)nnc2Oc2cccc(C3CC3)c2F)C(=O)C2CC2)c(C)c1 [b-25]
≥ 75%: pest or weed control at 25 ppm (Botrytis cinerea [2]) | pest or weed control at 125 ppm (Botrytis cinerea [2]) | inhibition of growth at 25 ppm (Glomerella cingulata) | pest or weed control at 125 ppm (Venturia inaequalis) | pest or weed control at 125 ppm [3] | inhibition of growth at 25 ppm (Colletotrichum acutatum) | inhibition of growth at 25 ppm (Botrytis cinerea [1])

CCc1cc(C(=O)NN(Cc2ccc(C)cc2C)C(=O)OC)c(Oc2cccc(C3CC3)c2F)nn1 [b-27]
≥ 75%: pest or weed control at 25 ppm (Botrytis cinerea [2]) | pest or weed control at 125 ppm (Botrytis cinerea [2]) | inhibition of growth at 25 ppm (Glomerella cingulata) | inhibition of growth at 25 ppm (Colletotrichum acutatum) | inhibition of growth at 25 ppm (Fusarium graminearum) | inhibition of growth at 25 ppm (Botrytis cinerea [1])

— patent publication US20260198493A1, “HYDRAZIDE COMPOUND AND AGRICULTURAL/HORTICULTURAL FUNGICIDE” (Nippon Soda Co., Ltd., priority 2022, published 2026)
